# According to publication PMC7216583 (Parasites & Vectors, 2020):
# Where a name gives a salt, the structure may show the parent alone.
# Tested on: Toxoplasma gondii RH-2F tachyzoites
# Assay: microbe, parasite or virus in culture
# Conditions: 72 h, read-out: Parasite inhibition (%) mean
row,SMILES,inhibition of growth at 5 µM [%]
1,C/C=C(\C)C(=O)N[C@@H](c1ccccc1)[C@@H](O)C(=O)O[C@H]1C[C@@]2(O)[C@@H](OC(=O)c3ccccc3)[C@@H]3[C@]4(OC(C)=O)CO[C@@H]4C[C@H](O)[C@@]3(C)C(=O)[C@H](OC(C)=O)C(=C1C)C2(C)C [Cephalomannine],22.4
2,COC(=O)[C@H](c1ccccc1Cl)N1CCc2sccc2C1 [Clopidogrel (Plavix)],-0.4
3,CNCC(O)c1ccc(O)c(O)c1 (racemic) [DL-Adrenaline],1.5
4,c1ccc([C@H]2CN3CCSC3=N2)cc1 [Levamisole Hydrochloride (Ergamisol)],63.9
5,C#Cc1cccc(Nc2ncnc3cc(OC)c(OCCCCCCC(=O)NO)cc23)c1 [CUDC-101],46.2
6,CC(C)NCC(O)COc1ccc(CCOCC2CC2)cc1 (stereo not shown) [Betaxolol (Betoptic)],9.5

# Same assay, conditions: 72 h, read-out: Parasite inhibition (%) mean, preliminary screen of compound library, mean
row,SMILES,inhibition of growth at 5 µM [%]
1,COc1cc(C(C)=O)ccc1OCCCN1CCC(c2noc3cc(F)ccc23)CC1 [Iloperidone (Fanapt)],37.8
2,CCc1nc(-c2cccc(C)c2)c(-c2ccnc(NC(=O)c3ccccc3)c2)s1 [TAK 715],22.5
3,CN1CCN(C(=O)c2cc3cc(Cl)ccc3[nH]2)CC1 [JNJ-7777120],67.4
4,Nc1nc(=O)c2c([nH]1)NC[C@H](CNc1ccc(C(=O)N[C@@H](CCC(=O)O)C(=O)O)cc1)N2C=O [Calcium levofolinate (Calcium Folinate)],0.1
5,O=C[C@H](O)[C@@H](O)[C@H](O)CO [Xylose],-51.2
6,NC(=O)Cc1cccc(C(=O)c2ccccc2)c1N [Nepafenac],-10.3
7,CC1(C)[C@@H](O[C@H]2O[C@H](C(=O)O)[C@@H](O)[C@H](O)[C@@H]2O[C@@H]2O[C@H](C(=O)O)[C@@H](O)[C@H](O)[C@H]2O)CC[C@@]2(C)[C@H]3C(=O)C=C4[C@@H]5C[C@@](C)(C(=O)O)CC[C@]5(C)CC[C@@]4(C)[C@]3(C)CC[C@@H]12 [Ammonium Glycyrrhizinate (AMGZ)],0.1
8,C[C@H]1CNCCc2ccc(Cl)cc21 [Lorcaserin HCl],34.8
9,COc1cc2nc(N3CCCN(C)CC3)nc(NC3CCN(Cc4ccccc4)CC3)c2cc1OC [BIX01294],21.8
10,Fc1cc(-c2cccc3ncc(-c4cnn(C5CCNCC5)c4)nc23)cc(F)c1CN1CCOCC1 [NVP-BSK805 2HCl],14.6
11,C[C@@H](O[C@H]1OCCN(Cc2nn(P(=O)(O)O)c(=O)[nH]2)[C@H]1c1ccc(F)cc1)c1cc(C(F)(F)F)cc(C(F)(F)F)c1 [Fosaprepitant dimeglumine],-2.8
12,Cc1cnc(Nc2ccc(OCCN3CCCC3)cc2)nc1Nc1cccc(S(=O)(=O)NC(C)(C)C)c1 [TG101348 (SAR302503)],8.5
13,N[C@@H](CC(=O)N1CCn2c(nnc2C(F)(F)F)C1)Cc1cc(F)c(F)cc1F [Sitagliptin phosphate monohydrate],1.1
14,Nc1ncnc2c1ncn2[C@@H]1O[C@@H](COP(=O)(O)OP(=O)(O)OP(=O)(O)O)[C@@H](O)[C@H]1O [ATP (Adenosine-Triphosphate)],-56.8
15,CCOC(=O)c1c(CSc2ccccc2)n(C)c2cc(Br)c(O)c(CN(C)C)c12 [Arbidol HCl],2.8
16,CCNC(=O)CCC/C=C\C[C@@H]1[C@@H](/C=C/[C@@H](O)CCc2ccccc2)[C@H](O)C[C@@H]1O [Bimatoprost],9
17,CN(C)C1CCN(C(=O)c2ccc(NC(=O)Nc3ccc(-c4nc(N5CCOCC5)nc(N5CCOCC5)n4)cc3)cc2)CC1 [PF-05212384 (PKI-587)],40.5

row,SMILES,inhibition of growth at 5 µM [%]
1,C[C@H]1C[C@H]2[C@@H]3CCC4=CC(=O)C=C[C@]4(C)[C@@H]3C(=O)C[C@]2(C)[C@]1(O)C(=O)CO [Betapar (Meprednisone)],0.9
2,CC(C)OC(=O)C(C(=O)OC(C)C)=C1SC=CS1 [Malotilate],0.5
3,N[C@@H]1CCCCN(c2c(F)cc3c(=O)c(C(=O)O)cn(C4CC4)c3c2Cl)C1 [Besifloxacin HCl (Besivance)],39.1
4,Cc1nc(NC(=O)N2CCC[C@H]2C(N)=O)sc1-c1ccnc(C(C)(C)C(F)(F)F)c1 [BYL719],47.5
5,COc1ccc2[nH]c([S+]([O-])Cc3ncc(C)c(OC)c3C)nc2c1 (stereo not shown) [Esomeprazole sodium (Nexium)],14.2
6,CC1=C(C(=O)OC(C)C)C(c2cccc([N+](=O)[O-])c2)C(C(=O)OC2CN(C(c3ccccc3)c3ccccc3)C2)=C(N)N1 (stereo not shown) [Azelnidipine],15.7
7,CN1CCc2c(c3ccccc3n2Cc2ccc(C(=O)NO)cc2)C1 [Tubastatin A HCl],2.3
8,Cc1cccc(-c2nn3c(c2-c2ccnc4ccc(C(N)=O)cc24)CCC3)n1 [LY2157299],5.2
9,COc1c(OCCCN2CCOCC2)ccc2c1N=C(NC(=O)c1cnc(N)nc1)N1CCN=C21 [BAY80-6946],40.8
10,C[C@@H](O)[C@H]1C(=O)N2C(C(=O)O)=C(S[C@@H]3CN[C@H](CNS(N)(=O)=O)C3)[C@H](C)[C@H]12 [Doripenem Hydrate],0.8
11,CC1CCN(CC[C@H]2CCCN2S(=O)(=O)c2cccc(O)c2)CC1 [SB-269970 HCl],-10.7
12,O=C(O)c1ccc(-n2nc(-c3ccccc3O)nc2-c2ccccc2O)cc1 [Deferasirox (Exjade)],-0.6
13,Nc1ncnc2c1c(-c1cnc3[nH]ccc3c1)nn2C1CCCC1 [PP-121],36.8
14,CCCCc1oc2ccc(NS(C)(=O)=O)cc2c1C(=O)c1ccc(OCCCN(CCCC)CCCC)cc1 [Dronedarone HCl (Multaq)],2.5
15,Cn1c(=O)cc(N2CCC[C@@H](N)C2)n(Cc2ccccc2C#N)c1=O [Alogliptin (SYR-322)],44.1
16,CCOc1nc2cccc(C(=O)OCc3oc(=O)oc3C)c2n1Cc1ccc(-c2ccccc2-c2nc(=O)o[nH]2)cc1 [Azilsartan Medoxomil (TAK-491)],35.5
17,CC=CC1=C(C(=O)O)N2C(=O)[C@@H](NC(=O)[C@H](N)c3ccc(O)cc3)[C@H]2SC1 (mixture of isomers) [Cefprozil hydrate (Cefzil)],12.3

# Same assay, conditions: 72 h, read-out: Parasite inhibition (%) mean, preliminary screen, mean
row,SMILES,inhibition of growth at 5 µM [%]
1,Clc1ccccc1C(c1ccccc1)(c1ccccc1)n1cccn1 [TRAM-34],2.6
2,Cn1c(=O)n(-c2ccc(C(C)(C)C#N)cc2)c2c3cc(-c4cnc5ccccc5c4)ccc3ncc21 [BEZ235 (NVP-BEZ235)],5.6
3,C#C[C@]1(O)C=C[C@H]2[C@@H]3CCC4=CC(=O)CC[C@@H]4[C@H]3CC[C@@]21CC [Gestodene],0.6
4,"CC(C)(C)C(=O)OCOP(=O)(COCCn1cnc2c(N)ncnc21)OCOC(=O)C(C)(C)C [Adefovir Dipivoxil (Preveon, Hepsera)]",0
5,Cc1ccc(S(=O)(=O)OCC(=O)Nc2ccc(C(=O)O)c(O)c2)cc1 [NSC 74859 (S3I-201)],-25.8
6,Cn1cc(-c2ccc3nnc(Sc4ccc5ncccc5c4)n3n2)cn1 [SGX-523],45.5
7,C/C(=C\C(=O)Nc1ccccc1C(=O)O)c1ccc2ccccc2c1 [BIBR 1532],0.4
8,CC(C)OC(=O)OCOP(=O)(CO[C@H](C)Cn1cnc2c(N)ncnc21)OCOC(=O)OC(C)C [Tenofovir Disoproxil Fumarate],0.5
9,COc1cc2nccc(Oc3ccc(NC(=O)Nc4cc(C)on4)c(Cl)c3)c2cc1OC [Tivozanib (AV-951)],-5.5
10,c1cnc2cc3c(cc2n1)C1CNCC3C1 [Varenicline tartrate],0
11,O=C(NOCC1CC1)c1ccc(F)c(F)c1Nc1ccc(I)cc1Cl [CI-1040 (PD184352)],0.4
12,CCCS(=O)(=O)Nc1ccc(F)c(C(=O)c2c[nH]c3ncc(-c4ccc(Cl)cc4)cc23)c1F [Vemurafenib (PLX4032)],0.5
13,CC1COC2(CCN(c3nc(=O)c4cc(C(F)(F)F)cc([N+](=O)[O-])c4s3)CC2)O1 (racemic) [BTZ043 racemate],-5.8
14,NC1(c2ccc(-c3nc4ccn5c(=O)[nH]nc5c4cc3-c3ccccc3)cc2)CCC1 [MK-2206 2HCl],45.5
15,CN(C)[C@@H](CCOc1cccc2ccccc12)c1ccccc1 [Dapoxetine HCl (Priligy)],0.8
16,CCOc1cc2ncc(C#N)c(Nc3ccc(OCc4ccccn4)c(Cl)c3)c2cc1NC(=O)/C=C/CN(C)C [Neratinib (HKI-272)],-11.6
17,Nc1ncnc2[nH]cnc12 [Adenine HCl],22.6
18,NC1=N[C@@]2(c3cc(NC(=O)c4ccc(F)cn4)ccc3F)COC[C@H]2CS1 [LY2886721],35.7
19,C[C@H](Cc1cc2c(c(C(N)=O)c1)N(CCCO)CC2)NCCOc1ccccc1OCC(F)(F)F [Silodosin (Rapaflo)],47.9
20,Cc1ccc(C(=O)Nc2ccc(CN3CCN(C)CC3)c(C(F)(F)F)c2)cc1C#Cc1cnc2cccnn12 [Ponatinib (AP24534)],49.3
21,CCOC(=O)[C@H](CCc1ccccc1)N[C@H]1CCCN2CCC[C@H](C(=O)O)N2C1=O [Cilazapril monohydrate (Inhibace)],11.9
22,COc1ccc(-n2nc(C(N)=O)c3c2C(=O)N(c2ccc(N4CCCCC4=O)cc2)CC3)cc1 [Apixaban],2
23,CCOc1cc2ncc(C#N)c(Nc3ccc(F)c(Cl)c3)c2cc1NC(=O)/C=C/CN(C)C [Pelitinib (EKB-569)],-28.8
24,O=S(=O)(O)CCSSCCS(=O)(=O)O [Dimesna],-0.8
25,Cc1cn(-c2cc(NC(=O)c3ccc(C)c(Nc4nccc(-c5cccnc5)n4)c3)cc(C(F)(F)F)c2)cn1 [Nilotinib (AMN-107)],0.1
26,CN(C)C(=O)Oc1ccc[n+](C)c1 [Pyridostigmine Bromide (Mestinon)],-6.5
27,CCCC(=O)OCOC(=O)C1=C(C)NC(C)=C(C(=O)OC)C1c1cccc(Cl)c1Cl (stereo not shown) [Cleviprex (Clevidipine)],23.8
